The numbers were not newly measured in patent publication US20060235005A1, “Use of phosphodiesterase 5 (PDE5) inhibitors in the treatment of schizophrenia” (Oak Labs, Corp., priority 2005, published 2006), which cites them from elsewhere.

Each structure is given as a SMILES string. Where two headings read alike, the source gives them in different places.

The test system of data set [1] is patients with schizophrenia. As to conditions: compared with haloperidol.
In another data set the test system is anesthetized dogs. As to conditions: intravenous 1-300 μg kg-1, anesthetized dogs.
For data set [2], the system named is rats. As to conditions: oral 0.3-1.0 mg kg-1, rats.
A further data set has as its system hyperammonemic rats. As to conditions: chronic oral treatment for 28 days.
For data set [3], the system named is women affected by arousal disorders.
A further data set has as its system healthy young men. As to conditions: 100 mg.
Data set [4] deals with rats.
The next data set has as its system cortical cGMP levels. As to conditions: subchronic administration, rats.
Data set [5] concerns rats. As to conditions: 3 mg/kg and 10 mg/kg p.o., at 24 hours.
The test system of data set [6] is male schizophrenia patients.
The subject of data set [7] is men with cardiovascular disease.
Data set [8] relates to mice. As to conditions: 2, 4, & 8 mg/kg.
For data set [9], the system named is mice. As to conditions: 3 mg/kg, at 48 hours.
The subject of data set [10] is middle cerebral artery occlusion. As to conditions: 2-5 mg/kg daily for seven days, vs vehicle.
The conditions of data set [11]: in vivo.
For another data set, the system named is healthy subjects. As to conditions: single 20-mg dose.
The test system of data set [12] is men with erectile dysfunction. As to conditions: phase III, including patients with cardiovascular diseases, vs placebo.
Another data set deals with schizophrenia patients. As to conditions: 8-week trial.
For data set [13] the following is noted: single oral dose of 10, 20 and 40 mg.

For `Cc1nc2n(c(=O)c1CCN1CCC(c3noc4cc(F)ccc34)CC1)CCCC2` [risperidone], the “reduction in relapse rate” value in data set [1] is 43%.

Turning to `CCCOc1ccc(S(=O)(=O)NCCC2CCCN2C)cc1-c1nc2c(CCC)nn(C)c2c(=O)[nH]1` (centres unmarked) [DA-8159], the intracavernosal pressure result in the data set on anesthetized dogs is “potentiated an increase in intracavernosal pressure in a dose-related manner”. The erectogenic activity result in the data set with rats [2] is reported as “erectogenic activity”.

With `CCCc1nn(C)c2c(=O)[nH]c(-c3cc(S(=O)(=O)N4CCN(C)CC4)ccc3OCC)nc12` [sildenafil], in the data set with hyperammonemic rats, the “cGMP levels in brains” value was “normalized cGMP levels” and the “performance on learning tasks” value is “restored performance on learning tasks”. Also, in [3], the sexual performance result was “improve sexual performance”. Besides, in the data set with healthy young men, the “actual performance (attention / recognition)” value is “did not significantly improve” and the “event-related brain potentials (ERPs) patterns” value was “significantly affected”. In the data set on rats [4] (10 mg/kg), the “effect on behavioral effects of dopamine agonists” value is “antagonized behavioral effects”. Moreover, the “effect on behavioral effects of dopamine agonists” value with rats [4] (single dose 1 mg/kg) is on record as “enhanced behavioral effects”. For the same molecule, in the data set with cortical cGMP levels, the “cortical cGMP levels” value was “increase cortical cGMP levels”. Also, the “retention of object recognition task” value in the data set on rats [5] is given as “significantly improved retention”. Further, the “safety and efficacy for erectile dysfunction” value in data set [6] is “safe and effective”. The “men with improved erectile function” value in [7] (men with ischemic heart disease) is recorded as “up to 70%”. For the same molecule, the “synergistic effect on blood pressure with antihypertensive agents” value in [7] (patients not taking organic nitrates, ACE inhibitors, adrenoceptor blockers, calcium channel blockers, diuretics) was “does not have a synergistic effect on blood pressure”. In the data set on mice [8], the “acquisition of maze learning” value was “dose-dependently improved acquisition”. For the same molecule, in the data set on mice [9], the “retention of passive avoidance task” value is recorded as “improved retention”. Moreover, the terminal half-life (in vivo) was 3 to 5 h. Also, for the setting “oral administration”, the absolute bioavailability is listed as 40%. In addition, the “time to peak plasma concentration (Tmax)” value (oral, fasting state) is 0.5 to 2 h. Also, the “functional recovery (foot fault test and adhesive removal test)” value in [10] is listed as “significantly greater functional recovery”. For the same molecule, the “cellular proliferation in the subventricular zone and dentate gyrus” value in data set [10] (bromodeoxyuridine labeling) was “greater cellular proliferation”.

Turning to `CN1CC(=O)N2[C@H](c3ccc4c(c3)OCO4)c3[nH]c4ccccc4c3C[C@@H]2C1=O` [tadalafil], the “maximum Tmax” value in data set [11] is reported as 2 h. The “change in heart rate, standing systolic or diastolic blood pressure” value with healthy subjects is listed as “no significant change”. Further, the “incidence of adverse events” value in data set [12] was “no different from that in placebo-treated patients”.

In the case of `N[C@@H]1CONC1=O` [D-cycloserine], the “tolerance for memory effects” value in the data set on animal models (after two weeks of daily dosing) is recorded as “tolerance for memory effects develops”. Also, the learning and memory entry with animal models (single dose administration) was “improves learning and memory”. In addition, the cognitive deficits entry in the data set on schizophrenia patients is “failed to improve cognitive deficits”.

In the case of `CCCc1nc(C)c2c(=O)[nH]c(-c3cc(S(=O)(=O)N4CCN(CC)CC4)ccc3OCC)nn12` [vardenafil], the Tmax in data set [13] was 0.7 to 0.9 h.
